Positions of bridges follow the written chain, without caps; N, C: chain ends. Residues, ends and D or L forms follow the SMILES beside them.

The target in this experiment is T1, amylin receptor, AMY1, a CT (calcitonin) receptor/RAMP1 (receptor-activity modifying protein) complex (Homo sapiens, UniProt O60894+P30988).
T1 construct: host or cells: CHO-K1/AMY1/Gα15
T1 sequence (P30988 25-474): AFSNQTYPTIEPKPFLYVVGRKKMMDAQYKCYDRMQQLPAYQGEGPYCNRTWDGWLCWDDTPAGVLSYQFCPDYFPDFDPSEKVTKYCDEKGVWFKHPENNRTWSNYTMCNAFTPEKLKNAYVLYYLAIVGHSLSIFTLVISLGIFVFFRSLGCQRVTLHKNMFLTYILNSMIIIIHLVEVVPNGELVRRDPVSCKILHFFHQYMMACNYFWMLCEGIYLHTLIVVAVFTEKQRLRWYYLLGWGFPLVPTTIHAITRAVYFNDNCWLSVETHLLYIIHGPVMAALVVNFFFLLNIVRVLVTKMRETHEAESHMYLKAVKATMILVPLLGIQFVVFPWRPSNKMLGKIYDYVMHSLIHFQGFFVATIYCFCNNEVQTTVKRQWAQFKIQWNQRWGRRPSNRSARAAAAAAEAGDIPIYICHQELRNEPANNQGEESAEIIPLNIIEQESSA
T1 sequence (O60894 27-148): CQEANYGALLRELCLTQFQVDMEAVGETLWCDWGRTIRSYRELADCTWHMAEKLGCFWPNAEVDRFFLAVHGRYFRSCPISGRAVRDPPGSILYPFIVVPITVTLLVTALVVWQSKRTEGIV
Description: Calcium flux assay (FLIPR Calcium 4) of inhibition of α-CGRP stimulation in CHO-K1/AMY1/Gα15 cells. The experiment is classed as cell-based. As to conditions: at maximal test concentration (series starts with 1 μM); CHO-K1/AMY1/Gα15 cells stimulated with 32 nM (EC80) α-CGRP; n = 2; read-out: % Inhibition @ Maximal concentration (Mean +/− SD, n = 2). As to the method:
Using a calcium flux assay, the dose-dependent inhibitory response of peptide antagonists of the present invention on an amylin receptor, AMY1, a CT (calcitonin) receptor/RAMP1 (receptor-activity modifying protein) complex was determined. The recombinant cell line CHO-K1/AMY1/Gα15 (GenScript, Piscataway, N.J., Catalog No. M00475) was employed in the assay. Peptide antagonist activities were tested, in duplicate, at five different concentrations, starting with 1 μM and serially diluted five-fold, in DMSO. AC187 (SEQ ID NO: 55), a known amylin receptor antagonist (available for example from Tocris Bioscience, Minneapolis, Minn., Catalog No. 3419) was used as a positive control in the assays, and human α-CGRP, a known amylin receptor agonist (SEQ ID NO:56) , (available for example from Tocris Bioscience, Minneapolis, Minn., Catalog No. 3012) was used as a positive control in the assays. The FLIPR® Calcium 4 Assay Kit (Molecular Devices, Sunnyvale, Calif.) was used.
Human α-CGRP having the amino acid sequence, NH2-[…]-NH2 (SEQ ID NO:56) and AC187 having the sequence […] (SEQ ID NO: 55) were employed as negative and positive controls, respectively. Stock solutions were further diluted in HBSS-HEPES buffer to make 5×final control solutions.
CHO-K1/AMY1/Gα15 cells were seeded in a 384-well black wall, clear bottom plate at a density of 20,000 cells/well in 20 μL of growth medium 20 hours prior to the day of the experiment and maintained at 37° C./5% CO2.
Per the assay kit protocol, dye-loading solution (at 2×final concentration) was added into the assay plate, 20 μL per well. Compound solution (at 5 ×final concentration) was added into the assay plate, 10 uL per well. The assay plate was placed into a 37° C. incubator for 1 hour, then left for 15 min at RT. The agonist plate (at 5×EC80 concentration) was placed in Source 2. The total reading time was 120 sec. The agonist was added after 20 seconds reading of the baseline and the fluorescence signal was captured for another 100 seconds (21 s to 120 s).
In screening, cells stimulated with assay buffer were chosen as the background; cells stimulated with agonist (at […] concentration) were chosen as the negative control.
Data were recorded by ScreenWorks (version 3.1) as FMD files and stored on the GenScript computer network for off-line analysis. Data acquisition and analyses was performed using ScreenWorks (version 3.1) program and exported to Excel. The average value of 20 (1 s to 20 s) seconds reading was calculated as the baseline reading and the relative fluorescent units (ΔRFU) intensity values were calculated with the maximal fluorescent units (21 s to 120 s) subtracting the average value of baseline reading.
The IC50 value of AC187 was 8 μM. The inhibitory activity of the tested peptide antagonists was normalized with the negative control (AC187) and reported as % Inhibition, calculated from the following equation: % Inhibition=(ΔRFUcompound−ΔRFUBackground)/(ΔRFUNegative control−ΔRFUBackground) * 100% Inhibition was then plotted along the Y-axis, with the test concentrations as indicated on the X-axis. The peptides were tested at indicated concentrations and stimulated with 32 nM (EC80) α-CGRP (Mean +/− SD, n=2).
A general note: Calcium flux is commonly read through the fluorescence of an indicator in the cells.
With `CC(C)C[C@H](NC(=O)CNC(=O)[C@H](C)NC(=O)[C@H](CC(C)C)NC(=O)[C@H](CCCNC(=N)N)NC(=O)[C@H](Cc1c[nH]cn1)NC(=O)[C@@H](NC(=O)[C@@H](NC(=O)[C@@H]1CSSC[C@H](NC(=O)[C@H](C)N)C(=O)N[C@@H](CC(=O)O)C(=O)N[C@@H]([C@@H](C)O)C(=O)N[C@@H](C)C(=O)N[C@@H](C)C(=O)N1)C(C)C)[C@@H](C)O)C(=O)N[C@@H](CC(C)C)C(=O)N[C@@H](CO)C(=O)N[C@@H](CCCNC(=N)N)C(=O)N[C@@H](CO)C(=O)NCC(=O)NCC(=O)N[C@H](C(=O)N[C@H](C(=O)N[C@@H](CCCCN)C(=O)N[C@@H](CC(N)=O)C(=O)N[C@@H](CC(N)=O)C(=O)N[C@@H](Cc1ccccc1)C(=O)N[C@H](C(=O)N1CCC[C@H]1C(=O)N[C@H](C(=O)N[C@@H](CC(N)=O)C(=O)N[C@H](C(=O)NCC(=O)N[C@@H](CO)C(=O)N[C@@H](CCCCN)C(=O)N[C@@H](C)C(=O)N[C@@H](Cc1ccccc1)C(N)=O)C(C)C)[C@@H](C)O)C(C)C)C(C)C)C(C)C` [compound 15], the inhibition at 1 µM amounted to 23.3%.
Consider `CC(C)C[C@H](NC(=O)[C@H](CCCNC(=N)N)NC(=O)CNC(=O)[C@H](CC(C)C)NC(=O)[C@@H](NC(=O)[C@@H]1CSSC[C@H](NC(=O)[C@H](C)N)C(=O)N[C@@H](CC(=O)O)C(=O)N[C@@H]([C@@H](C)O)C(=O)N[C@@H](C)C(=O)N[C@@H](CO)C(=O)N1)C(C)C)C(=O)N[C@@H](CO)C(=O)N[C@@H](CCC(N)=O)C(=O)N[C@@H](CCC(=O)O)C(=O)N[C@@H](CC(C)C)C(=O)N[C@@H](Cc1c[nH]cn1)C(=O)N[C@@H](CCCNC(=N)N)C(=O)N[C@@H](CC(C)C)C(=O)N[C@@H](CCC(N)=O)C(=O)N[C@H](C(=O)N[C@@H](Cc1ccc(O)cc1)C(=O)N1CCC[C@H]1C(=O)N[C@@H](CCCNC(=N)N)C(=O)N[C@H](C(=O)N[C@@H](CC(N)=O)C(=O)N[C@H](C(=O)NCC(=O)N[C@@H](CO)C(=O)N[C@@H](CCCCN)C(=O)N[C@@H](C)C(=O)N[C@@H](Cc1ccccc1)C(N)=O)C(C)C)[C@@H](C)O)[C@@H](C)O` [compound 2] (H-ACDTASCVLGRLSQELHRLQTYPRTNVGSKAF-NH2; disulfide 2-7 (inferred)), for which the inhibition at 1 µM is 96.5%.
Then `CC(C)C[C@H](NC(=O)[C@H](CCCNC(=N)N)NC(=O)CNC(=O)[C@H](CC(C)C)NC(=O)[C@@H](NC(=O)[C@@H]1CSSC[C@H](NC(=O)[C@H](C)N)C(=O)N[C@@H](CC(=O)O)C(=O)N[C@@H]([C@@H](C)O)C(=O)N[C@@H](C)C(=O)N[C@@H](C(C)C)C(=O)N1)C(C)C)C(=O)N[C@@H](CO)C(=O)N[C@@H](CCC(N)=O)C(=O)N[C@@H](CCC(=O)O)C(=O)N[C@@H](CC(C)C)C(=O)N[C@@H](Cc1c[nH]cn1)C(=O)N[C@@H](CCCNC(=N)N)C(=O)N[C@@H](CC(C)C)C(=O)N[C@@H](CCC(N)=O)C(=O)N[C@H](C(=O)N[C@@H](Cc1ccc(O)cc1)C(=O)N1CCC[C@H]1C(=O)N[C@@H](CCCNC(=N)N)C(=O)N[C@H](C(=O)N[C@@H](CC(N)=O)C(=O)N[C@H](C(=O)NCC(=O)N[C@@H](CO)C(=O)N[C@@H](CCCCN)C(=O)N[C@@H](C)C(=O)N[C@@H](Cc1ccccc1)C(N)=O)C(C)C)[C@@H](C)O)[C@@H](C)O` [compound 3] (H-ACDTAVCVLGRLSQELHRLQTYPRTNVGSKAF-NH2; disulfide 2-7 (inferred)), with 95.9%; and `CC(C)C[C@H](NC(=O)[C@H](CCCNC(=N)N)NC(=O)CNC(=O)[C@H](CC(C)C)NC(=O)[C@@H](NC(=O)[C@@H]1CSSC[C@H](NC(=O)[C@H](C)N)C(=O)N[C@@H](CC(N)=O)C(=O)N[C@@H](CC(C)C)C(=O)N[C@@H](CO)C(=O)N[C@@H](C(C)C)C(=O)N1)C(C)C)C(=O)N[C@@H](CO)C(=O)N[C@@H](CCC(N)=O)C(=O)N[C@@H](CCC(=O)O)C(=O)N[C@@H](CC(C)C)C(=O)N[C@@H](Cc1c[nH]cn1)C(=O)N[C@@H](CCCNC(=N)N)C(=O)N[C@@H](CC(C)C)C(=O)N[C@@H](CCC(N)=O)C(=O)N[C@H](C(=O)N[C@@H](Cc1ccc(O)cc1)C(=O)N1CCC[C@H]1C(=O)N[C@@H](CCCNC(=N)N)C(=O)N[C@H](C(=O)N[C@@H](CC(N)=O)C(=O)N[C@H](C(=O)NCC(=O)N[C@@H](CO)C(=O)N[C@@H](CCCCN)C(=O)N[C@@H](C)C(=O)N[C@@H](Cc1ccccc1)C(N)=O)C(C)C)[C@@H](C)O)[C@@H](C)O` [compound 11] (H-ACNLSVCVLGRLSQELHRLQTYPRTNVGSKAF-NH2; disulfide 2-7 (inferred)), with 96.5%; and `CC(C)C[C@H](NC(=O)[C@H](CCCNC(=N)N)NC(=O)CNC(=O)[C@H](CC(C)C)NC(=O)[C@@H](NC(=O)[C@@H]1CSSC[C@H](NC(=O)[C@H](C)N)C(=O)N[C@@H](C(C)C)C(=O)N[C@@H](CC(C)C)C(=O)NCC(=O)N[C@@H](C)C(=O)N1)C(C)C)C(=O)N[C@@H](CO)C(=O)N[C@@H](CCC(N)=O)C(=O)N[C@@H](CCC(=O)O)C(=O)N[C@@H](CC(C)C)C(=O)N[C@@H](Cc1c[nH]cn1)C(=O)N[C@@H](CCCNC(=N)N)C(=O)N[C@@H](CC(C)C)C(=O)N[C@@H](CCC(N)=O)C(=O)N[C@H](C(=O)N[C@@H](Cc1ccc(O)cc1)C(=O)N1CCC[C@H]1C(=O)N[C@H](C(=O)N[C@@H](CC(=O)O)C(=O)N1CCC[C@H]1C(=O)N[C@@H](CO)C(=O)N[C@@H](CO)C(=O)N1CCC[C@H]1C(=O)N[C@@H](Cc1c[nH]cn1)C(=O)N[C@@H](CO)C(=O)N[C@@H](Cc1ccc(O)cc1)C(N)=O)C(C)C)[C@@H](C)O` [compound 14] (H-ACVLGACVLGRLSQELHRLQTYPVDPSSPHSY-NH2; disulfide 2-7 (inferred)), with 51.9%.
Turning to `CC(C)C[C@H](NC(=O)[C@H](CCCNC(=N)N)NC(=O)CNC(=O)[C@H](CC(C)C)NC(=O)[C@@H](NC(=O)[C@@H]1CSSC[C@H](NC(=O)[C@H](C)N)C(=O)N[C@@H](CC(N)=O)C(=O)N[C@@H](CC(C)C)C(=O)N[C@@H](CO)C(=O)N[C@@H](C)C(=O)N1)C(C)C)C(=O)N[C@@H](CO)C(=O)N[C@@H](CCC(N)=O)C(=O)N[C@@H](CCC(=O)O)C(=O)N[C@@H](CC(C)C)C(=O)N[C@@H](Cc1c[nH]cn1)C(=O)N[C@@H](CCCNC(=N)N)C(=O)N[C@@H](CC(C)C)C(=O)N[C@@H](CCC(N)=O)C(=O)N[C@H](C(=O)N[C@@H](Cc1ccc(O)cc1)C(=O)N1CCC[C@H]1C(=O)N[C@@H](CCCNC(=N)N)C(=O)N[C@H](C(=O)N[C@@H](CC(N)=O)C(=O)N[C@H](C(=O)NCC(=O)N[C@@H](CO)C(=O)N[C@@H](CCCCN)C(=O)N[C@@H](C)C(=O)N[C@@H](Cc1ccccc1)C(N)=O)C(C)C)[C@@H](C)O)[C@@H](C)O` [compound 7] (H-ACNLSACVLGRLSQELHRLQTYPRTNVGSKAF-NH2; disulfide 2-7 (inferred)), the inhibition at 1 µM amounted to 96%.
Then `CC(C)C[C@H](NC(=O)[C@H](CCCNC(=N)N)NC(=O)CNC(=O)[C@H](CC(C)C)NC(=O)[C@@H](NC(=O)[C@@H]1CSSC[C@H](N)C(=O)N[C@@H](CO)C(=O)N[C@@H](CC(N)=O)C(=O)N[C@@H]([C@@H](C)O)C(=O)N[C@@H](C)C(=O)N[C@@H](C(C)C)C(=O)N1)C(C)C)C(=O)N[C@@H](CO)C(=O)N[C@@H](CCC(N)=O)C(=O)N[C@@H](CCC(=O)O)C(=O)N[C@@H](CC(C)C)C(=O)N[C@@H](Cc1c[nH]cn1)C(=O)N[C@@H](CCCNC(=N)N)C(=O)N[C@@H](CC(C)C)C(=O)N[C@@H](CCC(N)=O)C(=O)N[C@H](C(=O)N[C@@H](Cc1ccc(O)cc1)C(=O)N1CCC[C@H]1C(=O)N[C@@H](CCCNC(=N)N)C(=O)N[C@H](C(=O)N[C@@H](CC(N)=O)C(=O)N[C@H](C(=O)NCC(=O)N[C@@H](CO)C(=O)N[C@@H](CCCCN)C(=O)N[C@@H](C)C(=O)N[C@@H](Cc1ccccc1)C(N)=O)C(C)C)[C@@H](C)O)[C@@H](C)O` [compound 12] (H-CSNTAVCVLGRLSQELHRLQTYPRTNVGSKAF-NH2; disulfide 1-7 (inferred)), with 96.1%.

(Values after patent US10370425B2, “Peptide antagonists of the calcitonin CGRP family of peptide hormones and their use” (priority 2012, dated 2019).)
